From US11053205B2, “Phenazine derivatives as antimicrobial agents” (University of Florida Research Foundation, Incorporated, priority 2017, dated 2021)
In brackets after ≈: the same amount, converted by molar mass. Like-named read-outs stand apart in the source and are kept apart here. Marks after values point to notes of the source that are not given here.

Assays:
[1] = test system: MRSA BAA-1707; test: MIC, broth microdilution (CLSI); conditions: 16 to 18 hours at 37° C.; 0.10 = lowest concentration tested
[2] = test system: HeLa cells
[3] = test system: VRE 700221; test: MIC, broth microdilution (CLSI); conditions: for MIC: Enterococcus, VRE
[4] = test system: MRSE 35984; test: MIC, broth microdilution (CLSI); conditions: 16 to 18 hours at 37° C.
[5] = test system: MRSA BAA-1707 biofilms; test: Calgary Biofilm Device (CBD) assay, MBC/MBEC
[6] = test system: MRSE 35984 biofilms; test: Live/Dead staining of biofilms; format: cell-based, Staphylococcus epidermidis; conditions: 0.1, 5, and 10 μM, 24 hours
Description: (§1) A mid-log culture of MRSE 35894 was diluted 1:1,000-fold and 500 μL was transferred to each compartment of a 4 compartment CELLview dish (Greiner Bio-One 627871). The dish was then incubated for 24 hours at 37° C. After this time, the cultures were removed and the plate was washed with 0.9% saline. The dish was then treated with the compounds in fresh media at various concentrations. DMSO was used as the negative control in this assay. The dish was incubated with the compound for 24 hours at 37° C. After this time, the cultures were removed and the dish was washed with 0.9% saline for 2 minutes. Saline was then removed and 500 μL of the stain (Live/Dead BacLight Viability Kit, Invitrogen) were added for 15 minutes and left in the dark. After this time, the stain was removed and the dish was washed twice with 0.9% saline. Then the dish was fixed with 500 μL 4% paraformaldehyde in PBS for 30 minutes. Images of remaining MRSE biofilms were then taken with a fluorescence microscope. All data were analyzed using Image J software from three independent experiments.
Following biofilm eradication investigations in CBD assays, lead HP 61A was tested against biofilms of MRSE 35984 in live/dead staining experiments (FIG. 30B). After a 24-hour biofilm establishment, HP 61A was added at 0.1, 5, and 10 μM then left to incubate against MRSE 35984 biofilms for an additional 24 hours at 37° C.

[7] = test system: human red blood cells; conditions: human, 1 h, 200 μM, pH 7.2
[8] = test system: M. tuberculosis H37Ra (ATCC 25177); test: MIC assay for Mycobacterium tuberculosis; format: cell-based; conditions: Mycobacterium tuberculosis, 168 h; seven days at 37° C.; read-out: MtB H37Ra MIC
Description: (§2) The culture was then diluted with fresh medium until an OD600 of 0.01 was reached. […] The final DMSO concentration was maintained at 0.5%. […] Three rows were reserved for each compound. […] OD600 absorbance was recorded using SPECTRAMAX M5 (Molecular Devices). Data obtained from three independent experiments were analyzed using Excel.
as §2, with “SpectraMax” for “SPECTRAMAX”

[9] = UV-Vis metal(II) binding; format: physicochemical; conditions: kinetics of UV-Vis experiments
Description: Spectral scanning was performed from 200 to 800 nm in 2 nm increments.

[10] = test system: MRSA-1707 biofilms; test: Live/Dead staining of biofilms; format: cell-based, Staphylococcus aureus; conditions: 0.1, 1 and 5 μM, 24 hours
Description: as §1, with “To support the CBD assay findings, LIVE/DEAD experiments were performed with potent Compound 27 (FIG. 7). A mid-log” for “A mid-log”, “culture of MRSA-2 was diluted” for “culture of MRSE 35894 was diluted”, “4 compartment […] dish (Greiner” for “4 compartment CELLview dish (Greiner”, “stain was removed, and the” for “stain was removed and the”, “of remaining MRSA-2 biofilms were” for “of remaining MRSE biofilms were”, “Image J software.” for “Image J software from three independent experiments.”
HP 1-17 was tested against MRSA-1707 biofilms in live/dead staining experiments. […] After this time, images of the treated and untreated MRSA-1707 biofilms were obtained using fluorescence microscopy (FIG. 20).

[11] = test system: MRSA-1; test: MIC, broth microdilution (CLSI); conditions: Staphylococcus aureus, MRSA, read-out: MRSA-1 MIC
[12] = test system: S. epi 12228; test: MIC, broth microdilution (CLSI); conditions: Staphylococcus epidermidis, 12228, read-out: S. epi 12228 MIC
[13] = test system: MRSE 35984 biofilms; test: Calgary Biofilm Device (CBD) assay, MBC/MBEC; conditions: Staphylococcus epidermidis, MRSE, read-out: MRSE 35984 MBC
[14] = test system: MRSA BAA-44 biofilms; test: Calgary Biofilm Device (CBD) assay, MBC/MBEC; conditions: biofilm eradication
[15] = test system: MRSA-2 biofilms; test: Calgary Biofilm Device (CBD) assay, MBC/MBEC
[16] = test system: VRE 700221 biofilms; test: Calgary Biofilm Device (CBD) assay, MBC/MBEC
[17] = test system: human red blood cells; test: Hemolysis assay with red blood cells; conditions: 1 hour at 37° C.
[18] = test system: MRSA, MRSE and VRE biofilms; test: CBD assays against MRSA, MRSE, and VRE biofilms (all strains); conditions: strains not given

Compound: Oc1c(Br)cc(Br)c2nc3cc(Cl)ccc3nc12 [61A]
- MRSA BAA-1707 MIC [1]: 0.038 µM
- IC50 [2]: > 100 µM
- VRE 700221 MIC ([3]; 16 to 18 hours at 37° C.): 0.39 µM
- MRSE 35984 MIC [4]: 0.1 µM
- MRSA BAA-1707 MBEC ([5]; CBD, biofilm eradication): 4.69 µM
- biofilm eradication and clearance (live/dead staining) [6]: highly potent eradication and clearance of MRSE 35984 biofilms

Compound: Cc1cccc2nc3c(O)c(Br)cc(Br)c3nc12 [HP 1-17]
- Hemolysis at 200 μM [7]: 6.7%
- MIC [8]: 25 µM (≈ 9.2 µg/mL)
- rate of copper(II) chelation [9]: faster rate than HP 1
- biofilm eradication and clearance (live/dead staining) [10]: potent biofilm eradication and clearance response
- MIC [11]: 0.1 µM (≈ 0.0368 µg/mL)

Compound: CN[C@H](CC(C)C)C(=O)N[C@H]1C(=O)N[C@@H](CC(N)=O)C(=O)N[C@H]2C(=O)N[C@H]3C(=O)N[C@H](C(=O)N[C@H](C(=O)O)c4cc(O)cc(O)c4-c4cc3ccc4O)[C@H](O)c3ccc(c(Cl)c3)Oc3cc2cc(c3O[C@@H]2O[C@H](CO)[C@@H](O)[C@H](O)[C@H]2O[C@H]2C[C@](C)(N)[C@H](O)[C@H](C)O2)Oc2ccc(cc2Cl)[C@H]1O [vancomycin, reference compound]
- MIC [12]: 1.17 µM (≈ 1.7 µg/mL)
- MIC ([3]; read-out: VRE 700221 MIC): > 100 µM
- MBC [13]: 3 µM (≈ 4.35 µg/mL)
- MRSA BAA-44 MBEC [14]: > 2000 µM
- MBC ([5]; Staphylococcus aureus, read-out: MRSA BAA-1707 MBC): 3.9 µM (≈ 5.65 µg/mL)
- biofilm eradication activities against MRSA biofilms ([5]; at 2,000 μM (highest concentration tested)): no biofilm eradication activities
- MRSA-2 MBEC ([15]; CBD, biofilm eradication): > 2000 µM
- MBC ([15]; Staphylococcus aureus, MRSA, read-out: MRSA-2 MBC): 3 µM (≈ 4.35 µg/mL)
- VRE 700221 MBEC ([16]; CBD, biofilm eradication): 150 µM
- MBC ([16]; Enterococcus, VRE, read-out: VRE 700221 MBC): > 200 µM
- Hemolysis at 200 μM [17]: ≤1%

Compound: CCc1cccc2nc3c(O)c(Br)cc(Br)c3nc12 [HP 1-18]
- Hemolysis at 200 μM [7]: 1.7%
- MRSA BAA-1707 MIC [1]: 0.10^c μM
- MIC [8]: 25 µM (≈ 9.55 µg/mL)
- MIC ([3]; read-out: VRE 700221 MIC, 16 to 18 hours at 37° C.): 0.15 to 1.56 µM (≈ 0.0573 to 0.596 µg/mL)
- MBEC [18]: 0.59 to 2.35 µM
- MRSE 35984 MIC [4]: 0.10^c μM
